Patent publication US10561736B1, “Apoptosis inhibitor formulations for prevention of hearing loss” (Spiral Therapeutics, Inc., priority 2019, dated 2020)
“Also recorded” adds a separate entry of the source.

Key:
[1] = physical stability of drug product vials; format: physicochemical; conditions: for original drug concentration remaining in solution: filtered through 0.2 micron filters
Procedure: Vials of the drug product were stored at either room temperature or 4° C. for a period greater than three months.

hERG = target: T1, hERG (Homo sapiens, UniProt Q12809); test: hERG automated patch clamp assay in hERG-CHO cells; format: cell-based
T1 construct: expressed in transfected cells; host or cells: CHO
T1 sequence (Q12809 whole entry): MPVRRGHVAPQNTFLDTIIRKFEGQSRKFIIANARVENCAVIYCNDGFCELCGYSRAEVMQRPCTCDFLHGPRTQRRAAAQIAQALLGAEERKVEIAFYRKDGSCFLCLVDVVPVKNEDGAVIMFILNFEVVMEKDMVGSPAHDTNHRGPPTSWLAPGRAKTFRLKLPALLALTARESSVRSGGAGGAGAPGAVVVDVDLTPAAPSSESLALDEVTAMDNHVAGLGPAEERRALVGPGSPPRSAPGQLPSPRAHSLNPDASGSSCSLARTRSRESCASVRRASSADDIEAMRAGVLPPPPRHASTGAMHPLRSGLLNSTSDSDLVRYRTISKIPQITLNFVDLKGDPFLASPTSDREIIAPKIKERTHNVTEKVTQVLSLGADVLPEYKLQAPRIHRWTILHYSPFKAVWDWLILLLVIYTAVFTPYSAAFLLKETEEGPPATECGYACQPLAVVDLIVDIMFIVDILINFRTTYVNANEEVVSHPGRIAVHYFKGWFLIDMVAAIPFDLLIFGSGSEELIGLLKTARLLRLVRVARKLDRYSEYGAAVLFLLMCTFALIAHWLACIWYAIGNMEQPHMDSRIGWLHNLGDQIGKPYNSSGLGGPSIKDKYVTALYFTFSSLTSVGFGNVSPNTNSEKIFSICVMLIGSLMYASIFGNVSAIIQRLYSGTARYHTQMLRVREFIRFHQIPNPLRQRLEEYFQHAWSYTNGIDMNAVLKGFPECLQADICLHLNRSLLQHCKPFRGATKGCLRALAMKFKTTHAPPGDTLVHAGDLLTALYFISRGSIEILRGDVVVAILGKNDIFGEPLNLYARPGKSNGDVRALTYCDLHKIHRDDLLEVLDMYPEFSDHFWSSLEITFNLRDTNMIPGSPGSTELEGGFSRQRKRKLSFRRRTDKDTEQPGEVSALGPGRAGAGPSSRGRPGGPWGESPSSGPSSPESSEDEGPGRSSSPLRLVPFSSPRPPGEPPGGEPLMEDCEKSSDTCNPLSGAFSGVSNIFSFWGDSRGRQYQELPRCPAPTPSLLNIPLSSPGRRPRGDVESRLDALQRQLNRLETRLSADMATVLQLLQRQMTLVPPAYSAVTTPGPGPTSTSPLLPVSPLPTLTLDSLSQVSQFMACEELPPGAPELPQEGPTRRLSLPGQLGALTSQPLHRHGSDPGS
Description: The potential cardiotoxicity of LPT99 was investigated in an assay using the hERG-CHO cells transfected with the automated patch clamp assay.

[2] = cochlear distribution after IT administration (absorption); format: in vivo, rat; conditions: LPT99 formulation in hydrogel, detection limit 2 ng/mL=3.2 nM
[3] = system: BALB/c 3T3 mouse fibroblasts; test: in vitro phototoxicity; format: cell-based; conditions: ≤100 μM
Procedure: An in vitro experiment was performed in BALB/c 3T3 mouse fibroblasts to determine the phototoxic potential of LPT99 at concentrations of ≤100 μM in 3T3 L1 cells.

[4] = distribution in cochlea and plasma after a single IT administration; format: in vivo; conditions: rat
Procedure: Distribution of LPT99 was investigated in cochlea and plasma after a single IT administration in rats. The inhibitor was administered at 50, 100, or 200 μM (dissolved in 5% hydroxypropyl cyclodextrin in physiological serum).

HEI-OC1 cells = conditions: cellular model of CisPt-induced apoptosis; IEB Symposium abstracts 2016; cited from earlier work

**Q.** Which time to precipitation ([1]; vials stored at 4 C) does the source give for `COc1ccc2[nH]cc(CCNC(=O)CC3C(=O)N(CCc4ccc(Cl)cc4Cl)CC(=O)N3CCc3cccs3)c2c1` (stereo not shown) [LPT99, 2-(4-(2,4-dichlorophenethyl)-3,6-dioxo-1-(2-(thiophen-2-yl)ethyl)piperazin-2-yl)-N-(2-(5-methoxy-1H-indol-3-yl)ethyl)acetamide] here?
**A.** approximately 2 months

**Q.** And the “original drug concentration remaining in solution” value ([1]; vials stored at 4 C)?
**A.** less than 10%

**Q.** What about the “original drug concentration remaining in solution” value ([1]; vials stored at room temperature) of the same molecule?
**A.** 100%

**Q.** What about the appearance of solution ([1]; vials stored at room temperature, greater than three months) of the same molecule?
**A.** remained clear with no evidence of drug precipitation

**Q.** And the “safety margin (hERG IC50 vs plasma detection limit 3.2 nM)” value (hERG)?
**A.** > 1063

**Q.** What about the IC50 (hERG; hERG-CHO cells, automated patch clamp) of the same molecule?
**A.** 3.4 µM

**Q.** What about the “LPT99 in plasma after IT administration” value [2] of the same molecule?
**A.** no LPT99 has been found in plasma; also recorded: not detected systemically

**Q.** What about the “LPT99 in plasma after IT administration” value ([2]; listed as LTP99) of the same molecule?
**A.** not detectable in plasma

**Q.** And the “cytotoxicity in the presence or absence of ultraviolet-visible irradiation” value [3]?
**A.** not cytotoxic

**Q.** And the phototoxicity [3]?
**A.** not be phototoxic

**Q.** What about the “detection of LPT99 in administered cochleae” value ([4]; single IT 50, 100, or 200 μM in 5% hydroxypropyl cyclodextrin, 0.5 and 1 hour) of the same molecule?
**A.** detected in all administered cochleae

**Q.** What about the “LPT99 concentrations in contralateral cochleae and plasma” value ([4]; single IT, all time points) of the same molecule?
**A.** BLLQ

**Q.** And the “release of Cytc from mitochondria” value (HEI-OC1 cells)?
**A.** decreased release of Cytc from mitochondria
